The values below come from publication PMC6155913, “Reaction of 3-Amino-1,2,4-Triazole with Diethyl Phosphite and Triethyl Orthoformate: Acid-Base Properties and Antiosteoporotic Activities of the Products” (Molecules : A Journal of Synthetic Chemistry and Natural …, 2017).

The structures appear in SMILES notation. Read-outs that look alike come from different tables or passages of the source.

The conditions of series [1]: cited from earlier work.
A short description of series [2]: Protonation constants by potentiometric titration. The class given is physicochemical. The note with it: Potentiometry, 0.1 M KCl, 25 °C, [L] = 1 × 10^−3 M, error 1σ. The procedure: (§1) The acid-base properties of compounds 1 and 2 were determined to understand their behaviour in aqueous solutions. These studies were performed using potentiometry prompted by pH-UV titration studies and, for compound 1, pH*-NMR titration studies (pH* = pH uncorrected for the isotopic effect).
The titration studies of the compounds were carried out in double-distilled water using a Metrohm 809 Titrando system equipped with a combined glass electrode (Metrohm 6.0224.100) which was calibrated daily for hydrogen concentration using HCl (Merck, Warsow, Poland) (0.004 M) according to the procedure of Irving et al.. The ionic strength was fixed at I = 0.1 M with KCl (POCh). Alkali, CO2-free 0.1017 M KOH solution (POCh) was standardized by titration with potassium hydrogen phthalate (Merck). The ionic product of water under the experimental conditions was 10^−13.77 mol^2·dm^−6. The purity and exact concentration of each ligand were determined by the method of Gran. The titrations were carried out on 2.0 mL samples in a thermostatted cell at 25 ± 0.2 °C under a stream of Ar. The HYPERQUAD2013 computer program was applied to calculate the protonation constants. Triplicate titrations of each ligand (177–222 points) in a concentration of 1.0 × 10^−3 mol·dm^−3 were performed and used for the calculations. The distribution curves of the protonated species of the compounds (marked as L) as a function of pH were calculated using the HySS2009 program.

Series [3] is described as follows: Protonation constants by pH-UV (UV-Vis) titration. In kind it is physicochemical. Conditions: 0.1 M KCl, 25 °C, [L] = 7 × 10^−5 M, error 1σ. How it is done: as §1
The results of the potentiometric studies are supported by spectroscopic determination of the pK values of the studied compounds. The results, obtained from electronic spectra generated in the HypSpec program for the detected species, are presented in Table 2 and Figure S1. […] For compound 1, the band at approximately 215 nm was already present under a very acidic pH value (pH 1.57) (Figure 4). This band is assigned to the protonated 1,2,4-triazole. The band underwent a bathochromic shift to 230 nm when the pH rises, which is assigned to the H4L → H3L^− + H^+ deprotonation process at a pK4 of 4.22 or 4.16 (estimated potentiometrically or spectrophotometrically, respectively). This was the biggest change in absorption for the spectroscopic determination by UV spectrophotometry. This change was the reason for assigning the pK4 value to the deprotonation of 1,2,4-triazole. Adequate changes occur for the spectra of compound 2. […] Generally, spectroscopic titrations (see Figure S23 Supplementary Materials) are in a good agreement with potentiometric titrations and provide similar pK values.
Absorption spectra for the compounds were collected using a Varian Cary 50 spectrophotometer (Varian, Mulgrave, Victoria, Australia) in Quartz Hellma curvets with a 1 cm optical path. The solutions were prepared by dissolving the appropriate concentration of ligands ([L] = 7 × 10^−5 mol·dm^−3) in 0.004 M HCl with 0.1 M ionic strength (KCl). The background electrolyte was used as a baseline reference. Solution pH was changed manually by adding small amounts of concentrated potassium hydroxide and checked the pH using the 913 Metrohm pH meter equipped with a combined glass electrode (Metrohm 6.0224.100, Herisau, Switzerland). The protonation constants and spectral deconvolution were refined using the least squares fitting program HypSpec. Factor analysis by the HypSpec software (http://www.hyperquad.co.uk/) was implemented to characterize the number of species present in the solution.

For series [4], the system named is mouse macrophage-like J774E cells. The series can be described thus: Antiproliferative activity, MTT assay. The note with it: J774E macrophages, 72 h exposure. In kind it is cell-based. The procedure: To screen for potential antiosteoporotic activity of the bisphosphonates, their antiproliferative activity towards in vitro cell cultures was determined. J774E macrophages and osteoclasts are both derived from haematopoietic lineage and are highly endocytic and capable of demineralizing bone particles. Therefore, they are models for studies on the influence of bisphosphonates on the proliferation and activity of […]. For this purpose, mouse macrophage-like J774E cells, originating from the same precursors as the osteoclasts, were used. Such cells are well recognized for being sensitive to bisphosphonates, which likely act by inducing apoptosis in the cells. The J744E cell line was obtained from a cell bank at the Ludwik Hirszfeld Institute of Immunology and Experimental Therapy, Polish Academy of Sciences.
This experiment was performed according to a previously published procedure. To use the cell line, it is necessary to first thaw the cells using a water bath at 37 °C and gentle stirring. The cells were placed into the culture medium. This line was passaged 2 times a week in RPMI (growth medium consisting of 10% FBS, 100 μg/mL streptomycin, 100 U/mL penicillin and 2 mM glutamine) in Petri dishes. The cell growth was monitored under a microscope, and part of the material was used in the next stage of the experiment. Then, the cells were separated from the bottom (the surface proteins present on the plasma membrane allowing adhesion were destroyed) and were collected from the culture vessel. Then, in a Bürker chamber, the cell density was counted using a drop of cell suspension in a mixture ratio of 1:1 with trypan blue.
Then, a 96-well microtiter plate assay was performed with 100 μL of cells (5 × 10^4/mL) in a cultivation solution followed, after 24 h, by the addition of 100 μL of a solution of the tested compound (10^−3, 10^−4, 10^−5, or 10^−6 M) in the same medium. Plates were incubated at 37 °C in a humidified atmosphere saturated with 5% CO2. The in vitro cytotoxicities of all agents were examined by colorimetric MTT assay after 72 h of exposure of the cultured cells to varying concentrations of the tested compounds [32]. Briefly, 20 μL of the MTT solution (MTT: 3-(4,5-dimethylthiazol-2-yl)-2,5-diphenyl tetrazolium bromide) was added to each well and incubated for 4 h. After the incubation period was completed, 80 μL of the lysing mixture was added to each well (lysing mixture: 225 mL dimethylformamide, 67.5 g sodium dodecyl sulfate and 275 mL of distilled water). The optical densities of the samples were determined after 24 h using a Multiskan RC photometer (Labsystems, Helsinki, Finland) at 570 nm.
(Tetrazolium dyes change colour on reduction, which living cells bring about.)

Turning to `c1c[nH]nn1` [1,2,3-triazole], the pK of triazole in series [1] (unsubstituted triazole) is recorded as 9.26.

Turning to `c1nc[nH]n1` [1,2,4-triazole], the pK of triazole in series [1] (unsubstituted triazole) is listed as 9.95.

With `OCCCn1cc(-c2ccccn2)nn1` [3-(4-(pyridine-2-yl)-1H-1,2,3-triazol-1-yl-propan-1-ol], in series [1] (1,2,3-triazole-pyridines, previously reported), the pK of triazole is 3.40.

Consider `Nc1nc[nH]n1` [3-amino-1,2,4-triazole], for which the pK of triazole in series [1] (substituted triazole, previously reported) is 4.20.

`O=P(O)(O)C(Nc1nc[nH]n1)P(=O)(O)O` [Compound 1, 1,2,4-Triazolyl-3-yl-Aminomethylenebisphosphonic Acid]: in series [2], the “pK1(HL) amine” value is given as 11.52(3), the “pK2(H2L) phosphonate” value is 9.62(3), the “pK3(H3L) phosphonate” value is listed as 6.54(4) and the “pK5(H5L) phosphonate” value is given as 1.48(4). Further, in series [2] (listed as compound 1), the “pK2(H2L) phosphonate” value was 9.62, the “pK3(H3L) phosphonate” value stood at 6.54, the “pK4(H4L) triazole” value worked out at 4.22 and the “pK5(H5L) phosphonate” value was found to be 1.48. In addition, in series [3], the “pK1(HL) amine” value is 11.68(2), the “pK2(H2L) phosphonate” value was 9.32(5), the “pK3(H3L) phosphonate” value is reported as 6.15(6) and the “pK4(H4L) triazole” value is listed as 4.16(6). Moreover, in series [3], the “pK5(H5L) phosphonate” value is on record as 0.67(6). Moreover, in series [3] (listed as compound 1), the “pK4(H4L) triazole” value is recorded as 4.16. Further, the midpoint of inhibition in series [4], the IC50, lay at 25 µM. Further, inhibition in series [4] (Mus musculus, Macrophage, 72 h) was half-maximal at 24.9 ± 5.17 µM (IC50).

For `CCn1cnc(NC(P(=O)(O)O)P(=O)(O)O)n1` [Compound 2], in series [2], the “pK1(HL) amine” value is reported as 10.81(1), the “pK2(H2L) phosphonate” value is listed as 9.43(1), the “pK3(H3L) phosphonate” value is given as 6.73(1) and the “pK5(H5L) phosphonate” value is recorded as 1.69(1). In series [3], the “pK2(H2L) phosphonate” value is recorded as 9.56(2), the “pK3(H3L) phosphonate” value is 5.90(2) and the “pK4(H4L) triazole” value is reported as 3.32(2). The “pK4(H4L) triazole” value in series [3] (listed as compound 2) is given as 3.32. For the same molecule, in series [4] (Mus musculus, Macrophage, 72 h), the IC50 is 30.6 ± 4.64 µM.

With `O=P(O)(O)C(NC1CCCCCC1)P(=O)(O)O` [incadronic acid, reference compound], the IC50 in series [4] (Mus musculus, Macrophage, 72 h) came to 47.9 ± 1.39 µM.

Molecule `O=P(O)(O)C(O)(Cn1ccnc1)P(=O)(O)O` [zoledronic acid, reference compound] registered an IC50 in series [4] (Mus musculus, Macrophage, 72 h) of 24.5 ± 2.23 µM.

Usually IC50 stands for the point on the concentration scale where inhibition reaches its midpoint. A lower IC50 goes with greater potency in that assay.
